According to US6569805B1, “Herbicidal compositions” (Aventis CropScience GmbH, priority 1999, dated 2003):
Where “and” joins values, the source holds several entries; their conditions need not be identical. Identical values can stand only once.

Tests used:
Format in all cases: in vivo
Chenopodium album = assay: Greenhouse pot test, post-emergence spray, damage evaluated visually 2-3 weeks after treatment (Example 3); details: herbicide 0.015 kg/ha without vegetable oil
Description: (§1) Seeds or rhizome pieces of monocotyledonous and dicotyledonous harmful plants and useful plants were placed in sandy loam in pots of diameter 9 to 13 cm and covered with soil. The pots were kept in a greenhouse under optimal conditions. In the two- to three-leaf stage, i.e. approximately three weeks after cultivation has begun, the test plants were treated with the herbicides and vegetable oil in the form of aqueous dispersions or suspensions or emulsions and the green parts of the plant were sprayed with various dosage rates at an application rate of (converted) 300 l of water/ha. To grow the plants further, the pots were kept in the greenhouse under optimal conditions. The damage to the useful plants and harmful plants was evaluated visually 2-3 weeks after the treatment using the following scheme: 100%=total destruction, 0%=no action. The test results are shown in the table hereinbelow, the action of the herbicide/safener combination and of the vegetable oil when used separately being stated in brackets: […]

Sorghum halepense = assay: as above; details: herbicide 0.015 kg/ha without vegetable oil
Description: as §1

Echinochloa crus galli = assay: as above; details: herbicide 0.015 kg/ha without vegetable oil
Description: as §1

Cyperus esculentus = assay: Greenhouse test under paddy rice conditions, visual scoring about 3 weeks after application (Example 4); details: herbicide 0.004 kg/ha without vegetable oil
Description: (§2) Rice, and Cyperus esculentus as typical harmful plant, were grown in a greenhouse under paddy rice conditions (flooding level of the water 2-3 cm) in sealed plastic pots and sprayed with an active substance preparation at an application rate of (converted) 600 l/ha. The test plants were then placed in the greenhouse under optimal growth conditions and kept like this over the entire test period. Approximately 3 weeks after the application, they were evaluated by means of visually scoring the damage to the plants in comparison with the untreated control, using the following scheme: 100%=total destruction, 0%=no action. The test results are shown in the table hereinbelow, the action of the herbicide/safener combination and of the vegetable oil when used separately being stated in brackets: […]

Rice = assay: as above; details: crop plant, herbicide 0.004 kg/ha without vegetable oil
Description: as §2

Q: With `COc1cc(OC)nc(NC(=O)NS(=O)(=O)c2ncccc2C(=O)N(C)C)n1` [V1, Nicosulfuron] as the compound, how does the “CHEAL Action (%), herbicide used separately (first value in brackets)” value (Chenopodium album) read?
A: Its value is “(0 + 0) %”.

Q: And the “SORHA Action (%), herbicide used separately (first value in brackets)” value (Sorghum halepense)?
A: The value was “(0 + 0) %”.

Q: And the “ECHCG Action (%), herbicide used separately (first value in brackets)” value (Echinochloa crus galli)?
A: Its value is 0 (0 + 0) % and 0%.

Q: With `CCOc1ccccc1OS(=O)(=O)NC(=O)Nc1nc(OC)cc(OC)n1` [A13, 1-(4,6-dimethoxypyrimidin-2-yl)-3-(2-ethoxyphenoxysulfonyl)urea] as the compound, how does the “CYPES Action (%), herbicide used separately (first value in brackets)” value (Cyperus esculentus) read?
A: Its value is 35%.

Q: And the “Rice Action (%), herbicide used separately (first value in brackets)” value (Rice)?
A: The value was 0 (0 + 0) %.
